We go through 26 compounds from patent US10519098B2, “Aromatic derivatives as anti-malarial” (Council of Scientific & Industrial Research, priority 2014, dated 2019).

Usually IC50 stands for the midpoint of a concentration-inhibition curve. Broadly, the melting point is the temperature, or range, at which the solid turns liquid.

A short description of one data set: in vitro. The following applies: monkey. How it is done: The cells were incubated with test sample dilutions for 72 h and MTT was used as reagent for detection of cytotoxicity. Podophyllotoxin (SIGMA) was used as the standard reference drug.
Data set [1] deals with Chloroquine-sensitive (3D7) strain of P. falciparum. Put plainly: Malaria SYBR Green I-based fluorescence (MSF) assay, 3D7 strain. The class given is cell-based. To be noted: Plasmodium falciparum. The procedure: (§1) The stock (5 mg/mL or 10 mM) solutions of extracts were prepared in DMSO and required dilutions were made in culture medium.
(§2) Two-fold serial dilutions of test samples were made in 96 well plates and incubated with 1.0% parasitized cell suspension containing 0.8% parasitaemia (Asynchronous culture with more than 80% ring stages). The plates were incubated at 37° C. in CO2 incubator in an atmosphere of 5% CO2 and air mixture. 72 hours later 100 μL of lysis buffer containing 2× concentration of SYBR Green-I (Invitrogen) was added to each well and incubated for one hour at 37° C. The plates were examined at 485±20 nm of excitation and 530±20 nm of emission for relative fluorescence units (RFUs) per well using the fluorescence plate reader (FLX800, BIOTEK). IC50 values were obtained by Logit regression analysis of dose response curves (Singh et al. 2011).

The subject of data set [2] is Chloroquine-resistant (K1) strain of P. falciparum. Put plainly: Malaria SYBR Green I-based fluorescence (MSF) assay, K1 strain. It is filed as cell-based. The following applies: Plasmodium falciparum. The procedure: as §1, §2
[3] abbreviates: P. falciparum 3D7, 72 hours incubation, read-out: IC50 against 3D7.
Where [4] appears, read: P. falciparum K1, 72 hours incubation, read-out: IC50 against K1.
Setting [5] is: K1, range given for listed compounds, read-out: IC50 values against K1 culture.
Setting [6] is: 3D7, range given for listed compounds, read-out: IC50 values against 3D7 culture.

Each structure is given as a SMILES string. Read-outs that look alike come from different tables or passages of the source.

The compound `COc1ccccc1[C@H](COC(=O)/C=C/c1ccccc1)OC(=O)/C=C/c1ccccc1` [Compound 12, (R)-1-(2-methoxyphenyl)ethane-1,2-diyl (2E,2′E)-bis(3-phenylacrylate)] registered a CC50 at 72 h in “in vitro” of 51.7 µM. For the same compound, the concentration for half-maximal inhibition (IC50) in data set [1] (setting [3]) was over 5 µM.

With `COc1cccc([C@@H](CNC(=O)/C=C/c2ccccc2)OC(=O)/C=C/c2ccccc2)c1` [Compound 13, (S)-2-cinnamamido-1-(3-methoxyphenyl)ethyl cinnamate], the melting point fell in the range of 139 to 141 °C. The CC50 at 72 h in the data set “in vitro” is 148 µM. Besides, in data set [1] (setting [3]), the IC50 was over 5 µM.

`O=C(/C=C/c1ccccc1)OC[C@@H](OC(=O)/C=C/c1ccccc1)c1ccccc1` [Compound 27, (S)-1-phenylethane-1,2-diyl (2E,2′E)-bis(3-phenylacrylate)] showed a melting point of 131 to 133 °C. The CC50 at 72 h in “in vitro” came to 39.1 µM. In addition, the half-maximal inhibitory concentration (IC50) in data set [1] (setting [3]) was over 5 µM.

In turn, `O=C(/C=C/c1ccccc1)OC[C@@H](OC(=O)/C=C/c1ccccc1)c1ccc2c(c1)OCO2` [Compound 35, (S)-1-(benzo[d][1,3]dioxol-5-yl)ethane-1,2-diyl(2E,2′E)-bis(3-phenyl acrylate)] registered a melting point of 106 to 107 °C. This compound came in with a CC50 at 72 h in the data set “in vitro” of 31.8 µM. Moreover, the IC50 in data set [1] (setting [3]) is over 5 µM.

With `COc1ccc([C@@H](CNC(=O)/C=C/c2cccc(O[Si](C)(C)C(C)(C)C)c2)OC(=O)/C=C/c2cccc(O[Si](C)(C)C(C)(C)C)c2)cc1OC` [Compound 47, (S)-2-((E)-3-(3-((tert-butyldimethylsilyl)oxy)phenyl)acrylamido)-1-(3,4-dimethoxyphenyl)ethyl (E)-3-(3-((tert-butyldimethylsilyl)oxy)phenyl)acrylate], in “in vitro”, the CC50 at 72 h was determined as 52.6 µM. The IC50 is 7.52 µM in data set [2] (setting [4]) and over 10 µM in data set [1] (setting [3]).

`COc1cccc([C@@H](COC(=O)/C=C/c2ccccc2)OC(=O)/C=C/c2ccccc2)c1OC` [Compound 23, (S)-1-(2,3-dimethoxyphenyl)ethane-1,2-diyl (2E,2′E)-bis(3-phenyl acrylate)] had a CC50 at 72 h in “in vitro” of 28.4 µM. For the same compound, the IC50 in data set [1] (setting [3]) is over 5 µM.

`COc1cc([C@H](COC(=O)/C=C/c2ccccc2)OC(=O)/C=C/c2ccccc2)cc(OC)c1OC` [Compound 8, (R)-1-(3,4,5-trimethoxyphenyl)ethane-1,2-diyl (2E,2′E)-bis(3-phenyl acrylate)] came in with a CC50 at 72 h in “in vitro” of 122 µM. In addition, the IC50 in data set [1] (setting [3]) was over 5 µM.

The compound `O=C(/C=C/c1ccccc1)OC[C@@H](OC(=O)/C=C/c1ccccc1)c1cccc2c1OCO2` [Compound 37, (S)-1-(benzo[d][1,3]dioxol-4-yl)ethane-1,2-diyl(2E,2′E)-bis(3-phenyl acrylate)] gave a CC50 at 72 h in “in vitro” of over 200 µM. Besides, the IC50 in data set [2] (setting [4]) and in data set [1] (setting [3]) was over 10 µM throughout.

For the compound `COc1ccc([C@H](CNC(=O)/C=C/c2ccccc2)OC(=O)/C=C/c2ccccc2)cc1` [Compound 18, (R)-2-cinnamamido-1-(4-methoxyphenyl)ethyl cinnamate], the melting point fell in the range of 138 to 140 °C. In data set [1] (setting [3]), the IC50 is over 5 µM.

Compound `COc1ccccc1[C@@H](COC(=O)/C=C/c1ccccc1)OC(=O)/C=C/c1ccccc1` [Compound 11, (S)-1-(2-methoxyphenyl)ethane-1,2-diyl (2E,2′E)-bis(3-phenylacrylate)] displayed a CC50 at 72 h in “in vitro” of 14 µM. In addition, the IC50 in data set [2] (setting [5]) was 1.5 to 4 µM; in data set [2] (setting [4]) it was 3.23 µM; in data set [1] (setting [6]) it was 2 to 7 µM; in data set [1] (setting [3]), 3.8 µM.

As to `CCN(CC)CCCC(C)Nc1ccnc2cc(Cl)ccc12` (centres unmarked) [CQ, Chloroquine, reference compound], the IC50 in data set [2] (K1, 72 h, read-out: IC50 against K1) worked out at 0.25 ± 0.02 µM; in data set [1] (3D7, 72 h, read-out: IC50 against 3D7), 0.005 µM.

In turn, `COc1cc([C@H](CNC(=O)/C=C/c2ccccc2)OC(=O)/C=C/c2ccccc2)cc(OC)c1OC` [Compound 6, (R)-2-cinnamamido-1-(3,4,5-trimethoxyphenyl)ethyl cinnamate] gave a melting point of 126 to 127 °C. The compound also displayed a CC50 at 72 h in “in vitro” of 5.08 µM. The IC50 in data set [1] (setting [3]) is over 5 µM.

Compound `COc1cc([C@@H](COC(=O)/C=C/c2ccccc2)OC(=O)/C=C/c2ccccc2)cc(OC)c1OC` [Compound 7, (S)-1-(3,4,5-trimethoxyphenyl)ethane-1,2-diyl(2E,2′E)-bis(3-phenyl acrylate)] yielded a CC50 at 72 h in the data set “in vitro” of 6.44 µM. Further, the IC50 was 1.5 to 4 µM in data set [2] (setting [5]), 3.47 µM in data set [2] (setting [4]), 2 to 7 µM in data set [1] (setting [6]) and 3.37 µM in data set [1] (setting [3]).

Regarding `O=C(/C=C/c1ccccc1)OC[C@H](OC(=O)/C=C/c1ccccc1)c1ccc2c(c1)OCO2` [Compound 36, (R)-1-(benzo[d][1,3]dioxol-5-yl)ethane-1,2-diyl(2E,2′E)-bis(3-phenyl acrylate)], the melting point lay in the range of 108 to 110 °C. The CC50 at 72 h in the data set “in vitro” was 56.6 µM. For the same compound, in data set [1] (setting [3]), the IC50 is over 5 µM.

The compound `COc1ccc([C@H](COC(=O)/C=C/c2ccccc2)OC(=O)/C=C/c2ccccc2)cc1OC` [Compound 4, (R)-1-(3,4-dimethoxyphenyl)ethane-1,2-diyl (2E,2′E)-bis(3-phenyl acrylate)] came in with a CC50 at 72 h in the data set “in vitro” of 5.87 µM. Further, the IC50 in data set [2] (setting [4]) and in data set [1] (setting [3]) was over 5 µM each time.

`COc1cccc([C@@H](CNC(=O)/C=C/c2ccccc2)OC(=O)/C=C/c2ccccc2)c1OC` [Compound 21, (S)-2-cinnamamido-1-(2,3-dimethoxyphenyl)ethyl cinnamate] gave a melting point of 105 to 108 °C. In addition, the CC50 at 72 h in the data set “in vitro” is over 200 µM. For the same compound, the IC50 in data set [1] (setting [3]) was over 5 µM.

`COc1cccc([C@@H](COC(=O)/C=C/c2ccccc2)OC(=O)/C=C/c2ccccc2)c1` [Compound 15, (S)-1-(3-methoxyphenyl)ethane-1,2-diyl (2E,2′E)-bis(3-phenylacrylate)] yielded a melting point of 67 to 69 °C. Moreover, the CC50 at 72 h in “in vitro” came out at 61.9 µM. Further, in data set [1] (setting [3]), the IC50 is over 5 µM.

In turn, `COc1cccc([C@H](CNC(=O)/C=C/c2ccccc2)OC(=O)/C=C/c2ccccc2)c1` [Compound 14, (R)-2-cinnamamido-1-(3-methoxyphenyl)ethyl cinnamate] registered a melting point of 138 to 140 °C. In the data set “in vitro”, the CC50 at 72 h came out at 62.7 µM. Also, the IC50 in data set [1] (setting [3]) is over 5 µM.

In the data set “in vitro”, `O=C(/C=C/c1ccccc1)OC[C@H](OC(=O)/C=C/c1ccccc1)c1cccc2c1OCO2` [Compound 38, (R)-1-(benzo[d][1,3]dioxol-4-yl)ethane-1,2-diyl(2E,2′E)-bis(3-phenyl acrylate)] gave a CC50 at 72 h of over 200 µM. The results for the IC50 in data set [2] (setting [4]) and in data set [1] (setting [3]) were over 10 µM and 7.42 µM, respectively.

For the compound `COc1ccc([C@@H](CNC(=O)/C=C/c2ccccc2O[Si](C)(C)C(C)(C)C)OC(=O)/C=C/c2ccccc2O[Si](C)(C)C(C)(C)C)cc1OC` [Compound 46, (S)-2-((E)-3-(2-((tert-butyldimethylsilyl)oxy)phenyl)acrylamido)-1-(3,4-dimethoxyphenyl)ethyl (E)-3-(2-((tert-butyldimethylsilyl)oxy)phenyl)acrylate], the CC50 at 72 h in “in vitro” was 58.9 µM. The values for the IC50 in data set [2] (setting [4]) and in data set [1] (setting [3]) were 4.56 µM and 8.49 µM, respectively.

Take `COc1ccccc1[C@H](CNC(=O)/C=C/c1ccccc1)OC(=O)/C=C/c1ccccc1` [Compound 10, (R)-2-cinnamamido-1-(2-methoxyphenyl)ethyl cinnamate]: the melting point lay within 112 to 114 °C. For the same compound, the CC50 at 72 h in the data set “in vitro” is 117 µM. Moreover, the 50% inhibitory concentration (IC50) in data set [1] (setting [3]) is over 5 µM.

Regarding `COc1ccc([C@@H](COC(=O)/C=C/c2ccccc2)OC(=O)/C=C/c2ccccc2)cc1` [Compound 19, (S)-1-(4-methoxyphenyl)ethane-1,2-diyl (2E,2′E)-bis(3-phenylacrylate)], the melting point was in the range of 93 to 96 °C. This compound also registered a CC50 at 72 h in “in vitro” of 33.5 µM. For the same compound, the IC50 in data set [1] (setting [3]) is over 5 µM.

The compound `COc1ccc([C@@H](CNC(=O)/C=C/c2ccccc2)OC(=O)/C=C/c2ccccc2)cc1` [Compound 17, (S)-2-cinnamamido-1-(4-methoxyphenyl)ethyl cinnamate] returned a melting point of 137 to 139 °C. For the same compound, the IC50 in data set [1] (setting [3]) was over 5 µM.

With `COc1ccc([C@@H](COC(=O)/C=C/c2ccccc2)OC(=O)/C=C/c2ccccc2)cc1OC` [Compound 3, (S)-1-(3,4-dimethoxyphenyl)ethane-1,2-diyl(2E,2′E)-bis(3-phenyl acrylate)], in the data set “in vitro”, the CC50 at 72 h is 24.3 µM. Also, the half-inhibitory concentration (IC50) in data set [1] (setting [3]) is over 5 µM.

In the data set “in vitro”, `CCCC(=O)NC[C@@H](OC(=O)CCC)c1ccc(OC)c(OC)c1` [Compound 45, (S)-2-butyramido-1-(3,4-dimethoxyphenyl)ethyl butyrate] displayed a CC50 at 72 h of 51.8 µM. For the same compound, the 50% inhibitory concentration (IC50) in data set [2] (setting [4]) and in data set [1] (setting [3]) was over 10 µM throughout.

`COc1cccc([C@H](COC(=O)/C=C/c2ccccc2)OC(=O)/C=C/c2ccccc2)c1OC` [Compound 24, (R)-1-(2,3-dimethoxyphenyl)ethane-1,2-diyl(2E,2′E)-bis(3-phenyl acrylate)] showed a CC50 at 72 h in “in vitro” of 82.7 µM. The IC50 in data set [1] (setting [3]) was over 5 µM.
